In patent US20250205350A1, “Antibody-Drug Conjugates and Uses Thereof” (Vivasor, Inc., priority 2022, published 2025):

Key:
SkBr-3 (Her2+) = test: In vitro cell viability (CellTiter-Glo) of camptothecin derivatives in SkBr-3; assay type: cell-based, human; settings: 120-hour assay
Method: (§1) The in vitro efficacies of camptothecin derivatives were evaluated using the following human cancer cell lines: SkBr-3 (Her2+) and MDA-MB-468 (HER2−), purchased from the American Type Culture Collection (ATCC; Manassas, VA) and were routinely cultured in DMEM/F-12 medium (Catalog #10-090-CV; Corning) supplemented with 10% fetal bovine serum (FBS; Catalog #MT35011CV; Corning) and 1× Penicillin-Streptomycin (Catalog #30-002-CI; Corning) and maintained at 37° C. with 5% CO2 in a humidified environment.
(§2) Tumor cells were harvested by detachment with cell stripper. Viable cell counts were made by Trypan blue exclusion using a Countess or Countess II automated cell counter. Cell Viability Assay: All cells were harvested and seeded into 384-well white wall clear bottom plates (Catalog #3765; Corning) at a density of 875 cells/well in DMEM/F-12 medium supplemented with 10% fetal bovine serum and 1× Penicillin-Streptomycin (complete growth media). Plates were maintained at 37° C. for 4-6 hours to allow cells to adhere to the plate. The outer wells of plates contained complete growth medium only and were used for background subtraction for the cell viability assay. Working solutions of test articles were prepared at 2× final concentrations with 5-fold serial dilutions in complete growth medium. Cell treatment was performed in triplicates and maintained at 37° C. for 120-hour assay. After treatment, cell viability was determined by CellTiter-Glo 2.0 assay (Catalog #G9243; Promega; Madison, WI, USA) based on the manufacturer's instructions. CellTiter Glo reagent reacts with ATP in metabolically active cells to give a luminescent readout that is directly proportional to the number of viable cells. Briefly, plates were removed from the incubator and equilibrated to room temperature before addition of CellTiter Glo reagent. Luminescence was measured using a Tecan Spark microplate reader (Tecan; Mannedorf, Switzerland).
(§3) For Cytotoxicity assays, raw luminescence data was background subtracted with average luminescence from the outer wells containing medium only and normalized to untreated controls using Excel (Microsoft; […]). Dose-response relationships and EC50 values were determined based on non-linear regression analysis of normalized data fit to a four-parameter logistic equation using GraphPad Prism 8.0.

MDA-MB-468 (HER2−) = test: In vitro cell viability (CellTiter-Glo) of camptothecin derivatives in MDA-MB-468; assay type: cell-based, human; settings: 120-hour assay
Method: as §1, §2, §3

HER2-positive SkBr-3 = test: In vitro cell viability (CellTiter-Glo) of anti-HER2 ADCs in SkBr-3; assay type: cell-based; settings: Homo sapiens, SK-BR-3, 120 h, Table 6; 120-hour assay
Method: as §1, with “ADCs” for “The in vitro efficacies of camptothecin derivatives”, “HER2-positive SkBr-3, HER2-positive NCI-N87,” for “SkBr-3 (Her2+)”, “HER2-negative MDA-MB-468,” for “MDA-MB-468 (HER2−),”, “#[…];” for “#10-090-CV;”
(§4) Tumor cells were harvested by detachment with cell stripper. Viable cell counts were made by Trypan blue exclusion using a Countess or Countess II automated cell counter. […] After treatment, cell viability was determined by CellTiter-Glo 2.0 assay (Catalog #G9243; Promega; Madison, WI, USA) based on the manufacturer's instructions. CellTiter Glo reagent reacts with ATP in metabolically active cells to give a luminescent readout that is directly proportional to the number of viable cells. […] Luminescence was measured using a Tecan Spark microplate reader (Tecan; Mannedorf, Switzerland).
(§5) For Cytotoxicity assays, raw luminescence data was background subtracted with average luminescence from the outer wells containing medium only and normalized to untreated controls using Excel (Microsoft; Albuquerque, NM). […]

HER2-negative MDA-MB-468 = test: In vitro cell viability (CellTiter-Glo) of anti-HER2 ADCs in MDA-MB-468; assay type: cell-based; settings: Homo sapiens, MDA-MB-468, 120 h, 120-hour assay
Method: as §1, with “ADCs” for “The in vitro efficacies of camptothecin derivatives”, “HER2-positive SkBr-3, HER2-positive NCI-N87,” for “SkBr-3 (Her2+)”, “HER2-negative MDA-MB-468,” for “MDA-MB-468 (HER2−),”, “#[…];” for “#10-090-CV;”
as §4, §5

[1] = Homo sapiens, SK-BR-3, 120 h, Table 4A, derivatives as TFA salt, exatecan mesylate
[2] = Homo sapiens, MDA-MB-468, 120 h, Table 4A, derivatives as TFA salt, exatecan mesylate
[3] = Homo sapiens, SK-BR-3, 120 h, Table 4B
[4] = Homo sapiens, MDA-MB-468, 120 h, Table 4B
[5] = Table 4A, derivatives as TFA salt, exatecan mesylate

| Structure (SMILES) | EC50 (SkBr-3 (Her2+); [1]) [nM] | EC50 (MDA-MB-468 (HER2−); [2]) [nM] | other results |
| --- | --- | --- | --- |
| CC[C@]1(O)C(=O)OCc2c1cc1n(c2=O)Cc2c-1nc1cc(F)c(C)c3c1c2[C@H](NC(=O)C1CNC1)CC3 [Compound L078-030] | 49.6 | 57.2 | – |
| CC[C@@]1(O)C(=O)OCc2c1cc1n(c2=O)Cc2c-1nc1cc(F)c(C)c3c1c2[C@@H](NC(=O)CO)CC3 [Dxd, reference compound] | 2.2 | 2 | EC50 (HER2-positive SkBr-3): 3.84 nM; EC50 (SkBr-3 (Her2+); [3]): 3.66 nM; EC50 (MDA-MB-468 (HER2−); [4]): 3.16 nM; EC50 (HER2-negative MDA-MB-468; Table 5): 2.55 nM; EC50 (HER2-negative MDA-MB-468; Table 6): 2.57 nM |
| CC[C@]1(O)C(=O)OCc2c1cc1n(c2=O)Cc2c-1nc1cc(F)c(C)c3c1c2[C@H](NC(=O)[C@@H]1CCN1)CC3 [Compound L078-043] | 1.8 | 3.7 | – |
| CC[C@]1(O)C(=O)OCc2c1cc1n(c2=O)Cc2c-1nc1cc(F)c(C)c3c1c2[C@H](NC(=O)C1(N)CCOCC1)CC3 [Compound L078-150] | – | – | EC50 (MDA-MB-468 (HER2−); Table 4B): 3.01 nM |
| CC[C@]1(O)C(=O)OCc2c1cc1n(c2=O)Cc2c-1nc1cc(F)c(C)c3c1c2[C@H](NC(=O)[C@@H]1COCCN1)CC3 [Compound L078-048] | 5.6 | 5.7 | – |
| CC[C@]1(O)C(=O)OCc2c1cc1n(c2=O)Cc2c-1nc1cc(F)c(C)c3c1c2[C@H](NC(=O)C1(N)COC1)CC3 [Compound L078-088] | – | – | EC50 (SkBr-3 (Her2+); [3]): 2.72 nM; EC50 (MDA-MB-468 (HER2−); [4]): 7.32 nM |
| CC[C@]1(O)C(=O)OCc2c1cc1n(c2=O)Cc2c-1nc1cc(F)c(C)c3c1c2[C@H](NC(=O)C1CCNCC1)CC3 [Compound L078-081] | – | – | EC50 (SkBr-3 (Her2+); [5]): 163 nM; EC50 (MDA-MB-468 (HER2−); [5]): 81.4 nM |
| CC[C@]1(O)C(=O)OCc2c1cc1n(c2=O)Cc2c-1nc1cc(F)c(C)c3c1c2[C@H](NC(=O)[C@H]1CCCN1)CC3 [Compound L078-065] | 3.2 | 6 | – |
| CC[C@@]1(O)C(=O)OCc2c1cc1n(c2=O)Cc2c-1nc1cc(F)c(C)c3c1c2[C@@H](N)CC3 [Exatecan, exatecan, reference compound] | 0.69 | 1.1 | EC50 (MDA-MB-468 (HER2−); [4]): 1.99 nM |
| CC[C@]1(O)C(=O)OCc2c1cc1n(c2=O)Cc2c-1nc1cc(F)c(C)c3c1c2[C@H](NC(=O)[C@@H]1C[C@@H](F)CN1)CC3 [Compound L078-051] | 2.8 | 5.4 | – |
| CC[C@]1(O)C(=O)OCc2c1cc1n(c2=O)Cc2c-1nc1cc(F)c(C)c3c1c2[C@H](NC(=O)[C@H]1CCN1)CC3 [Compound L078-042] | 2.3 | 5.7 | – |
| CC[C@]1(O)C(=O)OCc2c1cc1n(c2=O)Cc2c-1nc1cc(F)c(C)c3c1c2[C@H](NC(=O)[C@@H]1CNCCO1)CC3 [Compound L078-047] | 11 | 15.7 | – |
| CC[C@]1(O)C(=O)OCc2c1cc1n(c2=O)Cc2c-1nc1cc(F)c(C)c3c1c2[C@H](NC(=O)C1(N)CCOC1)CC3 (stereo partly drawn) [Compound L078-149] | – | – | EC50 (SkBr-3 (Her2+); [3]): 7.71 nM; EC50 (MDA-MB-468 (HER2−); [4]): 5.01 nM |
| CC[C@]1(O)C(=O)OCc2c1cc1n(c2=O)Cc2c-1nc1cc(F)c(C)c3c1c2[C@H](NC(=O)[C@H]1COCCN1)CC3 [Compound L078-049] | 2.3 | 4.7 | – |
| CC[C@]1(O)C(=O)OCc2c1cc1n(c2=O)Cc2c-1nc1cc(F)c(C)c3c1c2[C@H](NC(=O)c1cccc(N)n1)CC3 [Compound L078-029] | – | – | EC50 (SkBr-3 (Her2+); [5]): 0.8 nM; EC50 (MDA-MB-468 (HER2−); [5]): 2 nM |
| CC[C@]1(O)C(=O)OCc2c1cc1n(c2=O)Cc2c-1nc1cc(F)c(C)c3c1c2[C@H](NC(=O)[C@H]1CNCCO1)CC3 [Compound L078-046] | 5.5 | 5.7 | – |
| CC[C@]1(O)C(=O)OCc2c1cc1n(c2=O)Cc2c-1nc1cc(F)c(C)c3c1c2[C@H](NC(=O)[C@@H]1CCCN1)CC3 [Compound L078-066] | 3 | 5.6 | – |
